Measurements reported in ChEMBL document CHEMBL4482325, “Clpx inhibitory compounds for the treatment of multi resistant staphylococcus aureus virulence and for the treatment of leukemia” (2018).
Values belong to the compound of their own block, whether it stands above or below them. Active and inactive are the calls of the source. The calls are words filed in the database; no cut-off is given here.

What was measured:
Staphylococcus aureus [1] = assay: (§1) Inhibition of Staphylococcus aureus ClpXP using ssrA degradation tagged fluorescent GFP substrate in presence of ATP regeneration system pre-incubation for 15 mins before substrate addition by fluorescence assay
Staphylococcus aureus [2] = assay: Inhibition of Staphylococcus aureus ClpCP at 100 uM using ssrA degradation tagged fluorescent GFP substrate in presence of ATP regeneration system pre-incubation for 15 mins before substrate addition by fluorescence assay
[3] = as §1
[4] = target: T1, ATP-dependent Clp protease proteolytic subunit (Staphylococcus aureus (strain NCTC 8325)) (UniProt Q2G036); assay: Inhibition of Staphylococcus aureus ClpP using ssrA degradation tagged fluorescent GFP substrate in presence of ATP regeneration system pre-incubation for 15 mins before substrate addition by fluorescence assay
T1 sequence (whole entry): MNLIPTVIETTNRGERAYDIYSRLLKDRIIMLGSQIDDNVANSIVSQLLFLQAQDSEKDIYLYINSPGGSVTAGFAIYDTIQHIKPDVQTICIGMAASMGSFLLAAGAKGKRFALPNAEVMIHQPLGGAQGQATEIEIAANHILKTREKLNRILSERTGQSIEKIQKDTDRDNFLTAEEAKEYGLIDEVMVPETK

Staphylococcus aureus [5] = assay: Inhibition of Staphylococcus aureus ClpXP using ssrA degradation tagged fluorescent GFP substrate in presence of ATP regeneration system pre-incubation for 15 mins before substrate addition by fluorescence assay relative to control
Homo sapiens [6] = species: Homo sapiens; assay: Inhibition of human ClpXP at 1 to 100 uM preincubated for 15 mins before FITC-labeled casein substrate addition in presence of ATP regeneration mix and creatine kinase
[7] = Inhibition of Staphylococcus aureus ClpPX assessed as reduction in ATP hydrolysis incubated for 2 to 14 mins by malachite green assay
Homo sapiens [8] = species: Homo sapiens; assay: Cytotoxicity against human S-Jurkat cells assessed as reduction in cell viability up to 120 uM incubated for 72 hrs by cell-titer blue reagent based assay; format: functional
CCRF-CEM = assay: Cytotoxicity against human CCRF-CEM cells assessed as reduction in cell viability up to 120 uM incubated for 72 hrs by cell-titer blue reagent based assay; format: functional
K562 = assay: Cytotoxicity against human K562 cells assessed as reduction in cell viability up to 100 uM incubated for 72 hrs by cell-titer blue reagent based assay; format: functional
Staphylococcus aureus [9] = assay: Suppression of virulence factors in Staphylococcus aureus NCTC 8325 assessed as reduction in serine protease F expression; format: functional, organism-based
Staphylococcus aureus [10] = assay: Binding affinity to Staphylococcus aureus ClpPX assessed as induction of covalent modification a 100 um incubated for 60 mins by intact mass spectrometry
Staphylococcus aureus [11] = assay: Suppression of virulence factors in Staphylococcus aureus NCTC 8325 assessed as reduction in serine protease B expression; format: functional, organism-based
Staphylococcus aureus [12] = assay: (§2) Inhibition of ClpXP in Staphylococcus aureus NCTC 8325 assessed as reduction in extracellular proteolytic activity by measuring hemolysis of sheep erythrocytes exposed to supernatants of 20 hrs compound pre-treated Staphylococcus aureus
[13] = as §2
Staphylococcus aureus [14] = assay: Suppression of virulence factors in Staphylococcus aureus NCTC 8325 assessed as reduction in gamma hemolysin-C protein expression; format: functional, organism-based
Staphylococcus aureus [15] = assay: Inhibition of ClpXP in Staphylococcus aureus NCTC 8325 assessed as reduction in extracellular proteolytic activity by measuring overall proteolysis of sheep erythrocytes exposed to supernatants of 20 hrs 0.1 to 30 nmol compound pre-treated Staphylococcus aureus
Staphylococcus aureus [16] = assay: Suppression of virulence factors in Staphylococcus aureus NCTC 8325 assessed as reduction in staphopain-A expression; format: functional, organism-based
Staphylococcus aureus [17] = assay: Suppression of virulence factors in Staphylococcus aureus NCTC 8325 assessed as reduction in serine protease D expression; format: functional, organism-based
Staphylococcus aureus [18] = assay: Suppression of virulence factors in Staphylococcus aureus NCTC 8325 assessed as reduction in serine protease A expression; format: functional, organism-based
[19] = Half life in mouse plasma at 100 uM by HPLC and MS analysis; format: ADME, cell-free
Staphylococcus aureus [20] = assay: Suppression of virulence factors in Staphylococcus aureus NCTC 8325 assessed as reduction in serine protease C expression; format: functional, organism-based
Staphylococcus aureus [21] = assay: Suppression of virulence factors in Staphylococcus aureus NCTC 8325 assessed as reduction in serine protease E expression; format: functional, organism-based
Staphylococcus aureus [22] = assay: Binding affinity to Staphylococcus aureus ClpXP assessed as induction of collapse of ClpXP proteolytic complex
A549 = assay: Cytotoxicity against human A549 cells assessed as reduction in residual metabolic activity at 1 to 50 uM incubated for 24 hrs by MTT assay; format: functional, cell-based

inhibition (active/not active) (Staphylococcus aureus [1]): Active
SMILES: C#Cc1ccc2c(c1)C(=O)C1=C2Nc2ccccc2SC1c1cccc(O)c1 (stereo not drawn)

inhibition (active/not active) (Staphylococcus aureus [1]): Active
inhibition (Staphylococcus aureus [5]): 35%
SMILES: CC(=O)Oc1ccc(C2Sc3ccccc3NC3=C2C(=O)c2ccccc23)cc1 (stereo not drawn)

inhibition (active/not active) (Staphylococcus aureus [1]): Active
SMILES: O=C1C2=C(Nc3ccccc3SC2c2cc(O)cc(O)c2)c2ccccc21 (stereo not drawn)

inhibition (active/not active) (Staphylococcus aureus [1]): Active
SMILES: COc1cc(O)cc(C2Sc3ccccc3NC3=C2C(=O)c2ccccc23)c1 (stereo not drawn)

inhibition (active/not active) (Staphylococcus aureus [1]): Active
SMILES: O=C1C2=C(Nc3ccccc3SC2c2ccc(O)cc2)c2ccccc21 (stereo not drawn)

inhibition (active/not active) (Staphylococcus aureus [1]): inactive
SMILES: O=C1C2=C(Nc3ccccc3SC2c2ccccc2O)c2ccccc21 (stereo not drawn)

inhibition (active/not active) (Staphylococcus aureus [1]): Active
SMILES: O=C1C2=C(Nc3ccccc3SC2c2cccc(CO)c2)c2ccccc21 (stereo not drawn)
Activity (A549): inactive

inhibition (active/not active) (Staphylococcus aureus [1]): Active
SMILES: COc1cccc(C2Sc3ccccc3NC3=C2C(=O)c2ccccc23)c1 (stereo not drawn)

inhibition (active/not active) (Staphylococcus aureus [1]): Active
SMILES: C#Cc1ccc2c(c1)C1=C(C2=O)C(c2cccc(O)c2)Sc2ccccc2N1 (stereo not drawn)

inhibition (active/not active) (Staphylococcus aureus [1]): Active
SMILES: COc1ccc2c(c1)SC(c1cccc(O)c1)C1=C(N2)c2ccccc2C1=O (stereo not drawn)

inhibition (active/not active) (Staphylococcus aureus [1]): Active
SMILES: O=C1C2=C(Nc3ccccc3SC2c2cccc(F)c2)c2ccccc21 (stereo not drawn)

inhibition (active/not active) (Staphylococcus aureus [1]): Active
SMILES: O=C1C2=C(Nc3ccccc3SC2c2cc(O)cc(Br)c2)c2ccccc21 (stereo not drawn)

inhibition (active/not active) (Staphylococcus aureus [1]): Active
SMILES: C#CCCCCOc1cc(O)cc(C2Sc3ccccc3NC3=C2C(=O)c2ccccc23)c1 (stereo not drawn)

inhibition (active/not active) (Staphylococcus aureus [1]): Active
SMILES: Nc1cccc(C2Sc3ccccc3NC3=C2C(=O)c2ccccc23)c1 (stereo not drawn)

Continued, compound first:

SMILES: C#CCNC(=O)c1ccc2c(c1)C1=C(C2=O)C(c2cccc(OC)c2)Sc2ccccc2N1 (stereo not drawn)
inhibition (active/not active) (Staphylococcus aureus [1]): Active

SMILES: Cc1ccc(NC(=O)Cc2ccc(NC(=O)N3CCCCc4ccccc43)cc2)cc1C
inhibition (Staphylococcus aureus [2]): inactive
IC50 [3]: 1600 nM
inhibition [4]: inactive

SMILES: O=C1C2=C(Nc3ccccc3S(=O)(=O)C2c2ccc(-c3ccccc3)cc2)c2ccccc21 (stereo not drawn)
inhibition (active/not active) (Staphylococcus aureus [1]): Active

SMILES: O=C1C2=C(Nc3ccccc3SC2c2cccnc2)c2ccccc21 (stereo not drawn)
inhibition (active/not active) (Staphylococcus aureus [1]): inactive

SMILES: O=C1C2=C(Nc3ccccc3NC2c2ccccc2)c2ccccc21 (stereo not drawn)
inhibition (active/not active) (Staphylococcus aureus [1]): Active

SMILES: O=C1C2=C(Nc3ccccc3S(=O)(=O)C2c2ccc(F)cc2)c2ccccc21 (stereo not drawn)
inhibition (active/not active) (Staphylococcus aureus [1]): Active

SMILES: O=C1C2=C(Nc3ccccc3SC2c2ccc(C(F)(F)F)cc2)c2ccccc21 (stereo not drawn)
inhibition (active/not active) (Staphylococcus aureus [1]): Active

SMILES: O=C1C2=C(Nc3ccccc3SC2c2cccs2)c2ccccc21 (stereo not drawn)
inhibition (Homo sapiens [6]): Active
inhibition (Staphylococcus aureus [2]): inactive
IC50 [7]: 1600 to 2400 nM
IC50 [3]: 2500 nM
Activity (Homo sapiens [8]): Active
inhibition [4]: inactive
Activity (CCRF-CEM): Active
Activity (K562): Active

SMILES: C#CCNC(=O)c1ccc2c(c1)C(=O)C1=C2Nc2ccccc2SC1c1cccc(OC)c1 (stereo not drawn)
inhibition (active/not active) (Staphylococcus aureus [1]): Active

SMILES: O=C(O)c1ccc(C2Sc3ccccc3NC3=C2C(=O)c2ccccc23)cc1 (stereo not drawn)
inhibition (active/not active) (Staphylococcus aureus [1]): inactive

SMILES: C#Cc1ccc2c(c1)C(=O)C1=C2Nc2ccccc2SC1c1cc(O)cc(N=[N+]=[N-])c1 (stereo not drawn)
inhibition (active/not active) (Staphylococcus aureus [1]): Active

SMILES: COC(=O)c1ccc(OC(=O)CCc2cc(OC)c(OC)c(OC)c2)cc1
inhibition (Staphylococcus aureus [2]): inactive

SMILES: N#CC1=C(N)Oc2[nH]nc(-c3ccc(Br)cc3)c2C1c1ccc(OC(=O)c2ccco2)cc1 (stereo not drawn)
inhibition (Staphylococcus aureus [2]): inactive
IC50 [3]: 3100 nM
inhibition [4]: inactive

SMILES: O=C1C2=C(Nc3ccccc3SC2c2ccccc2)c2ccccc21 (stereo not drawn)
inhibition (active/not active) (Staphylococcus aureus [1]): Active

SMILES: COc1ccc(-n2ccnc(SCC(=O)Nc3cc(OC)cc(OC)c3)c2=O)cc1
inhibition (Staphylococcus aureus [2]): inactive
IC50 [3]: 2200 nM
inhibition [4]: inactive

SMILES: C#CCNC(=O)c1ccc2c(c1)C(=O)C1=C2Nc2ccccc2SC1c1cccc(O)c1 (stereo not drawn)
inhibition (active/not active) (Staphylococcus aureus [1]): Active

SMILES: O=C1C2=C(Nc3ccccc3SC2c2cccc(O)c2)c2ccccc21 (stereo not drawn)
inhibition (Homo sapiens [6]): Active
inhibition (Staphylococcus aureus [2]): inactive
Activity (Staphylococcus aureus [9]): Dose-dependent effect
EC50 (Staphylococcus aureus [9]): 3000 nM
Activity (Staphylococcus aureus [10]): inactive
IC50 [7]: 1600 to 2400 nM
IC50 [3]: 1500 nM
Activity (Homo sapiens [8]): Active
Activity (Staphylococcus aureus [11]): Dose-dependent effect
EC50 (Staphylococcus aureus [11]): 3000 nM
inhibition (Staphylococcus aureus [12]): Dose-dependent effect
IC50 [13]: 3000 nM
inhibition [4]: inactive
Activity (CCRF-CEM): Active
Activity (Staphylococcus aureus [14]): Dose-dependent effect
EC50 (Staphylococcus aureus [14]): 3000 nM
inhibition (Staphylococcus aureus [15]): Active
Activity (K562): Active
Activity (Staphylococcus aureus [16]): Dose-dependent effect
EC50 (Staphylococcus aureus [16]): 3000 nM
inhibition (Staphylococcus aureus [5]): 100%
Activity (Staphylococcus aureus [17]): Dose-dependent effect
EC50 (Staphylococcus aureus [17]): 3000 nM
Activity (Staphylococcus aureus [18]): Dose-dependent effect
EC50 (Staphylococcus aureus [18]): 3000 nM
half-life at 100 µM [19]: > 4 h
Activity (Staphylococcus aureus [20]): Dose-dependent effect
EC50 (Staphylococcus aureus [20]): 3000 nM
Activity (Staphylococcus aureus [21]): Dose-dependent effect
EC50 (Staphylococcus aureus [21]): 3000 nM
Activity (Staphylococcus aureus [22]): Active

SMILES: C#Cc1ccc2c(c1)C1=C(C2=O)C(c2cc(O)cc(N=[N+]=[N-])c2)Sc2ccccc2N1 (stereo not drawn)
inhibition (active/not active) (Staphylococcus aureus [1]): Active

SMILES: N#CC1=C(N)Oc2cc3c(cc2C1c1ccc(OCc2ccc(F)cc2)cc1)OCO3 (stereo not drawn)
inhibition (Staphylococcus aureus [2]): inactive
IC50 [3]: 600 nM
inhibition [4]: inactive

SMILES: O=C1C2=C(Nc3ccccc3S(=O)(=O)C2c2cccc(O)c2)c2ccccc21 (stereo not drawn)
inhibition (active/not active) (Staphylococcus aureus [1]): Active
Activity (A549): inactive

SMILES: O=C1C2=C(Nc3ccccc3SC2c2ccc(-c3ccccc3)cc2)c2ccccc21 (stereo not drawn)
inhibition (active/not active) (Staphylococcus aureus [1]): Active

SMILES: O=C1C2=C(Nc3ccccc3SC2c2ccc(F)cc2)c2ccccc21 (stereo not drawn)
inhibition (active/not active) (Staphylococcus aureus [1]): Active

SMILES: O=C1C2=C(Nc3ccccc3S(=O)(=O)C2c2ccc(C(F)(F)F)cc2)c2ccccc21 (stereo not drawn)
inhibition (active/not active) (Staphylococcus aureus [1]): Active

SMILES: C#CCNC(=O)c1ccc2c(c1)C1=C(C2=O)C(c2cccc(O)c2)Sc2ccccc2N1 (stereo not drawn)
inhibition (active/not active) (Staphylococcus aureus [1]): Active

SMILES: COc1cccc(C2C3=C(Nc4ccccc4S2(=O)=O)c2ccccc2C3=O)c1 (stereo not drawn)
inhibition (active/not active) (Staphylococcus aureus [1]): Active

SMILES: O=C1C2=C(Nc3ccccc3SC2c2cccc(O)c2)c2cc(Cl)c(Cl)cc21 (stereo not drawn)
inhibition (active/not active) (Staphylococcus aureus [1]): Active
